Drawing on ChEMBL document CHEMBL1129048, “A novel, picomolar inhibitor of human immunodeficiency virus type 1 protease” (J Med Chem, 1996), this text covers EC50 and Ki for 8 molecules.

The subject of one assay is MT4. The experiment in a line: In vitro effective concentration against MT-4 cell line. It counts as functional, cell-based. As to conditions: Homo sapiens.
Assay [1] has as its target Human immunodeficiency virus type 1 protease (Human immunodeficiency virus 1, UniProt Q72874). The experiment in a line: Inhibitory activity against HIV-1 Protease.

Broadly, the EC50 is the concentration needed to bring the measured effect to its halfway point. The Ki is the equilibrium dissociation constant of an inhibitor or competing ligand from its target. Lower therefore signals higher affinity. As to `O=C1N(Cc2ccc(O)cc2)[C@H](Cc2ccccc2)[C@H](O)CN(Cc2ccccc2)N1Cc1ccc(O)cc1`, in the assay with MT4, the EC50 was determined as 10 nM. This molecule also displayed a Ki in assay [1] of 0.07 nM.
For `COc1cc(CN2C(=O)N(CC3CC3)N(Cc3ccccc3)C[C@@H](O)[C@H]2Cc2ccccc2)ccc1O` the same measures were 170 nM and 0.062 nM.
The molecule `COc1cc(CN2C(=O)N(Cc3ccc(O)c(OC)c3)N(Cc3ccccc3)C[C@@H](O)[C@H]2Cc2ccccc2)ccc1O` had an EC50 in the assay with MT4 of 2 nM. This lies in the single-digit nanomolar range.
The molecule `O=C1N(Cc2ccc(CO)cc2)[C@H](Cc2ccccc2)[C@H](O)CN(Cc2ccoc2)N1Cc1ccc(CO)cc1` displayed an EC50 in the assay on MT4 of 100 nM. The molecule also came in with a Ki in assay [1] of 0.49 nM.
`COc1cccc(CN2C(=O)N(Cc3cccc(OC)c3)N(Cc3ccccc3)C[C@@H](O)[C@H]2Cc2ccccc2)c1` came in with an EC50 with MT4 of 930 nM. In assay [1], this molecule gave an inhibitory constant (Ki) of 0.22 nM.
The molecule `O=C1N(Cc2ccc(CO)cc2)[C@H](Cc2ccccc2)[C@H](O)CN(Cc2ccccc2)N1Cc1ccc(CO)cc1` registered a concentration for a half-maximal effect (EC50) with MT4 of 90 nM. In assay [1], this molecule showed an inhibition constant Ki of 0.22 nM.
Molecule `O=C1N(Cc2ccc(CO)cc2)[C@H](Cc2ccccc2)[C@H](O)[C@@H](O)[C@@H](Cc2ccccc2)N1Cc1ccc(CO)cc1` [DMP-323] came in with a concentration for a half-maximal effect (EC50) with MT4 of 30 nM. The molecule also displayed a Ki in assay [1] of 0.23 nM.
For `O=C1N(Cc2ccccc2)[C@H](Cc2ccccc2)[C@H](O)CN(Cc2ccccc2)N1Cc1ccccc1` the same measures were 2860 nM and 2 nM.
